Test results from patent US20120142596A1, “AGENT FOR STIMULATING MOBILIZATION OF ENDOTHELIAL PROGENITOR CELLS” (priority 2009, published 2012).

B1: G-CSF: positive control, CJ Pharma Leukokine Inj. 150; known EPC mobilization factor (protein, UniProt P09919 31-207, looked up)
Granulocyte …: TPLGPASSLPQSFLLKCLEQVRKIQGDGAALQEKLVSECATYKLCHPEELVLLGHSLGIPWAPLSSCPSQALQLAGCLSQLHSGLFLYQGLLQALEGISPELGPTLDTLQLDVADFATTIWQQMEELGMAPALQPTQGAMPAFASAFQRRAGGVLVASHLQSFLEVSYRVLRHLAQP

Key:
[1] = system: endothelial progenitor cells; assay: Comparison of EPC colony formation in peripheral blood after intra-bone marrow administration of SP and G-CSF; assay type: in vivo, New Zealand white rabbits; conditions: rabbit, intra-bone marrow administration, 1, 2 and 3 days, compared to G-CSF
Method: (§1) According to the same method described in Example 2-(2), 0.1 ml of SP was administered to one rabbit group (New Zealand white rabbits, male, 2.5 kg, n=3), and 0.1 ml of G-CSF (CJ Pharma, Leukokine inj. 150; 2.5 μg/kg) as a positive control was administered to another rabbit group (New Zealand white rabbits, male, 2.5 kg, n=3). 1, 2 and 3 days after the administration, 5-15 ml of peripheral blood was isolated from each animal group. The isolated blood was two-fold diluted in PBS and carefully placed on Ficoll contained in a tube (Ficoll: peripheral blood=1:1 v/v). Then, the cell dilution was centrifuged at 2200 rpm for 25 minutes. The uppermost plasma layer was removed, and only the mononuclear cell layer was separated from the tube and transferred into a new tube. 30 ml of PBS was added to the obtained mononuclear cell layer and centrifuged at 1500 rpm for 5 minutes (washing step). The cells were suspended in EGM-2 (endothelial growth medium-2, Lonza), and the suspended cells were seeded on a 100-mm dish (Falcon) coated with fibronectin and were cultured in EGM-2 (endothelial growth medium-2, Lonza) for 2 weeks (5% CO2 and 37° C.). After the culture, the produced colonies were stained with toluidine blue and counted.

[2] = system: inflammatory cells (neutrophils, eosinophils and monocytes); assay: Complete blood cell count of peripheral blood after intra-bone marrow administration; assay type: in vivo, New Zealand white rabbits; conditions: rabbit, intra-bone marrow administration, 1, 2 and 3 days
[3] = system: endothelial progenitor cells; assay: Comparison of EPC colony formation in peripheral blood after intravenous administration of SP and G-CSF; assay type: in vivo, New Zealand white rabbits; conditions: rabbit
Method: as §1, with “1-(1),” for “2-(2),”

[4] = system: EPCs; assay: Ability to form tubes in vitro on Matrigel of EPCs cultured from blood after SP; assay type: cell-based, New Zealand white rabbits; conditions: EPCs from peripheral blood after intravenous SP, 12 hours
Method: In order to examine the blood vessel-forming ability of the EPCs that have been isolated and cultured from the blood, the cells were cultured on Matrigel (BD). For this purpose, 200 μl of Matrigel was added to each well of a 96-well plate and incubated at 37° C. for 30 minutes. The cells were added to each well containing Matrigel at a density of 2×10^4 and cultured for 12 hours. When mesenchymal stem cells (MSCs) were cultured in the same manner as described above, colonies were formed as shown in FIG. 4B.

[5] = system: endothelial progenitor cells; assay: EPC mobilization to peripheral blood after intravenous administration (EPC colony count); assay type: in vivo, New Zealand white rabbits; conditions: rabbit, 5 nmole/kg i.v. twice (0 and 24 h), blood 3 days after first injection, 2 weeks culture, vs PBS control
Method: Ketamine hydrochloride (50 mg/ml Yuhan, Korea) and Rompun (xylazine hydrochloride, 23.32 mg/ml Bayer Korea) were mixed at a ratio of 2:1, and then 900 μl of the mixture (600 μl of ketamine hydrochloride and 300 μl of Rompun) was injected intramuscularly into New Zealand white rabbits (male, 2.5 kg, n=3). 10 minutes after the intramuscular injection, the same anesthetic (200 μl of ketamine hydrochloride and 100 μl of Rompun) was injected intravenously into the ear vein of each rabbit to completely anesthetize the rabbits. Then, 5 nmole/kg of SP was dissolved in physiological saline solution, and 1 ml of the solution was administered slowly into the ear vein of one rabbit group. As a control, 1 ml of 1×PBS was administered into the ear vein of another rabbit group. 24 hours after the administration, the same amount of each of SP and 1×PBS was injected once more.
3 days after the first injection, peripheral blood was collected from the ear blood vessels of the rabbits, and 10 ml of the collected blood was two-fold diluted in PBS, and then carefully placed on Ficoll contained in a tube (Ficoll: peripheral blood=1:1 v/v). Next, the blood dilution was centrifuged at 2200 rpm for 25 minutes. As a result, a red blood cell (RBC) layer, a ficoll layer, a mononuclear cell layer and a plasma layer, from bottom to top, were formed. […]

[6] = system: EPCs; assay: Immunohistochemical staining of cells cultured from peripheral blood with EPC markers CD34 and UEA; assay type: cell-based, New Zealand white rabbits; conditions: cells cultured from peripheral blood after intravenous SP, fluorescence microscopy
Method: In order to examine the presence of EPCs in peripheral blood using the EPC markers CD34 and UEA, EPCs (2×10^4 cells/well) that have been isolated and cultured from the above blood were incubated on cover slips for CD34 test and UEA test, respectively. After incubation in a 5% CO2 incubator at 37° C. for 24 hours, the cells were washed with PBS. Then, the cells were fixed with 3.7% paraformaldehyde and washed again with PBS.
The washed cells were blocked with 20% goat serum and treated with anti-CD 34 antibody at room temperature for 1 hour. Then, the cells were washed again with PBS and treated with FITC-conjugated anti-mouse IgG at room temperature for 1 hour. To remove excess of antibodies, the cells were washed with PBS, counterstained with DAPI, and then mounted.
The washed cells were blocked with 20% goat serum and treated with UEA-biotin at room temperature for 1 hour. Then, the cells were washed again with PBS and treated with streptavidin-FITC at room temperature for 1 hour. The cells were washed with PBS, counterstained with DAPI, and then mounted.
For negative control in immune fluorescence staining, cultured cells were treated with only secondary antibody, and the expression thereof was observed (FIG. 2C).

[7] = system: endothelial progenitor cells; assay: EPC CFU in bone marrow aspirate after intra-bone marrow administration; assay type: in vivo, New Zealand white rabbits; conditions: rabbit, intra-bone marrow injection, bone marrow aspirate 24 hours after injection, 1 week culture; for increase in amount of mobilized EPCs (CFU) compared to negative control group: SP 4 nmole/kg, G-CSF 2.5 μg/kg
Method: Ketamine hydrochloride (50 mg/ml Yuhan, Korea) and Rompun (xylazine hydrochloride, 23.32 mg/ml Bayer Korea) were mixed at a ratio of 2:1, and then 900 μl of the mixture (600 μl of ketamine hydrochloride and 300 μl of Rompun) was injected intramuscularly into New Zealand white rabbits (male, 2.5 kg, n=4). 5 minutes after the intramuscular injection, the same anesthetic (200 μl of ketamine hydrochloride and 100 μl of Rompun) was injected intravenously into the ear of each rabbit to completely anesthetize the rabbits.
SP (Sigma, 4 nmole/kg in saline) was injected into the right iliac crest of one rabbit group at an injection volume of 0.1 ml using a 18G spinal needle.
As a negative control, 1×PBS was injected into the left iliac crest of another rabbit group at an injection volume of 0.1 ml using a 18G spinal needle. As a positive control, G-CSF (CJ Pharma Leukokine Inj. 150; 2.5 μg/kg) was injected into the right iliac crest at an injection volume of 0.1 ml using a 18G spinal needle.
24 hours after the injection, 4 ml of a bone marrow aspirate was isolated from the bone marrow, two-fold diluted in PBS, and then carefully placed on Ficoll (GE Health care) contained in a tube (Ficoll: bone marrow aspirate=1:1 v/v). Then, the cell dilution was centrifuged at 2200 rpm for 25 minutes. As a result, a red blood cell layer, a ficoll layer, a mononuclear cell layer and a plasma layer, from bottom to top, were formed. After removing the plasma layer, only the mononuclear cell layer was separated and transferred into a new tube. 30 ml of PBS was added to the obtained mononuclear cell layer and centrifuged again (washing step).
The isolated cells were seeded on a 100-mm dish (Falcon) coated with fibronectin and were cultured in EGM-2 (Endothelial growth medium-2, Lonza) for 1 week (5% CO2 and 37° C.). After the culture, the CFU of the cells was measured and compared with those of the group injected with PBS and the group injected with the positive control G-CSF.

[8] = system: inflammatory cells (neutrophils and monocytes); assay: Complete blood cell count of peripheral blood after intravenous administration; assay type: in vivo, New Zealand white rabbits; conditions: rabbit, intravenous administration, 1, 2 and 3 days, vs PBS control
Method: 1 ml of each of the peripheral bloods obtained 1, 2 and 3 days after intravenous administration of SP and G-CSF was placed in an EDTA-containing vial and mixed well to prevent clotting. In the experiment for isolating EPCs from blood cells, the complete blood cell counting of each blood was performed by Royal ARC (Korea) under the same conditions for each blood.

Molecule | effect of stimulating EPC mobilization (EPC colonies in peripheral blood) [1] | inflammatory cells (neutrophils, eosinophils and monocytes) in peripheral blood [2] | amount of EPCs in peripheral blood over 1, 2 and 3 days ([3]; days 1-3) | ability to form tubes in vitro [4] | amount of EPCs in peripheral blood (colonies) [5] | presence of EPCs in peripheral blood by EPC markers CD34 and UEA [6] | increase in amount of mobilized EPCs (CFU) compared to group administered with positive control G-CSF [7] | increase in amount of mobilized EPCs (CFU) compared to negative control group [7] | EPCs in peripheral blood after the second day ([3]; after the second day) | EPCs in peripheral blood at the first day ([3]; day 1) | inflammatory cells (neutrophils and monocytes) in peripheral blood [8]
Substance-P [SP] | excellent effect of stimulating EPC mobilization compared to G-CSF | without causing side effects such as inflammation | continuously increased | had the ability to form blood vessels | significantly increased | contained a large amount of EPCs | about 3 fold | 10-12 fold | – | – | –
B1 | – | significantly increased | – | – | – | – | – | about 4 fold | no EPCs were found | temporarily increased | significantly increased
